In paper PMC6364906 (PLoS ONE, 2019):
Converted amounts (≈) assume the structure as drawn.

Key:
K. pneumoniae GRP-0107 = assay: MIC/MBC by broth microdilution (CLSI); assay type: cell-based, Klebsiella pneumoniae; settings: geometric mean, wild-type strain
Description: (§1) The statistical significance of the difference in geometric means of MIC and MBC was determined with the Mann-Whitney U test.

P. aeruginosa ATCC 27853 = assay: MIC/MBC by broth microdilution (CLSI); assay type: cell-based, Pseudomonas aeruginosa; settings: geometric mean, wild-type reference strain
Description: as §1

P. aeruginosa GRP-0049 = assay type: cell-based; settings: geometric mean, broth microdilution, MDR carbapenem susceptible strain
Description: as §1

P. aeruginosa GRP-0036 = assay type: cell-based; settings: geometric mean, broth microdilution, MDR carbapenem resistant strain
Description: as §1

P. aeruginosa GRP-0019 = assay type: cell-based; settings: geometric mean, broth microdilution, wild-type strain
Description: as §1

bacterial dipeptidases = settings: cited from earlier work

MIC [range] (K. pneumoniae GRP-0107) | MIC [range] (P. aeruginosa ATCC 27853) | MIC [range] (P. aeruginosa GRP-0049) | MIC [range] (P. aeruginosa GRP-0036) | MIC [range] (P. aeruginosa GRP-0019) | Compound | inhibition of bacterial dipeptidases (bacterial dipeptidases)
0.5 µg/mL (≈ 1.67 µM) | 1.0 µg/mL (≈ 3.34 µM) | 1.2 µg/mL (≈ 4.01 µM) | 8 µg/mL (≈ 26.7 µM) | 0.5 µg/mL (≈ 1.67 µM) | C[C@@H](O)[C@H]1C(=O)N2C(C(=O)O)=C(SCCN=CN)C[C@H]12 [imipenem] | 
 |  |  |  |  | CC1(C)C[C@@H]1C(=O)N/C(=C\CCCCSC[C@H](N)C(=O)O)C(=O)O [cilastatin] | very inefficient inhibitor
